“Also recorded” adds a separate entry of the source.
Key:
db/db mice [1] = assay: Chronic treatment of db/db mice: blood glucose and glucose tolerance; format: in vivo, mouse; conditions: 18 week old db/db mice; for blood glucose levels: 5 U/kg BW daily, data not shown; for blood glucose tolerance: 150 U/kg BW daily for 4 weeks
Protocol: (§1) In a second set 18 week old db/db mice were treated with vehicle, NPH insulin, Degludec, or Lantus daily for 4 weeks (see FIG. 8). 18 wk old db/db mice were specifically used because by this age they have a diastolic dysfunction. The original protocol involved treating the mice with either NPH insulin (5 U/kg BW), Degludec (5 U/kg BW), or Lantus (5 U/kg BW). […] Other groups have reported that a higher dose of insulin is required to control hyperglycemia in db/db mice. The highest dose that had been reported to be safe, was 150 U/kg BW, which was then used for future experiments. Treating the mice with 150 U/kg BW of NPH insulin, Degludec, or Lantus improved blood glucose tolerance much more dramatically (FIG. 9). At the end of the 4 week treatment period, the cardiac energy metabolism and function was assessed via echocardiography. The Vevo 770 high resolution echocardiography imaging system was used to assess in vivo cardiac function was assessed in isoflurane anesthetized mice.

db/db mouse hearts = assay: Isolated working heart perfusion, cardiac energy metabolism (acute treatment), db/db; conditions: for glucose oxidation / palmitate oxidation: isolated working db/db mouse hearts, 10 wk old
Protocol: (§2) The effect of three different types of insulin, human insulin, insulin degludec, and the M1 metabolite of insulin glargine, on cardiac metabolism was determined in adult, 10 weeks old mice using either healthy C57Bl6 wildtype mice or Type-2 diabetes db/db mice. Mice were fed a standard chow diet and kept in 12 hr light: 12 hr dark cycle. To test their acute effect energy metabolism, hearts were removed from fully anesthetized mice, and perfused as isolated working hearts with Krebs Henseleit buffer (118.5 mM NaCl, 1.2 mM MgSO4, 25 mM NaHCO3, 4.7 mM KCl, 1.2 mM KH2PO4, 2.5 mM CaCl2) supplemented with 0.8 mM palmitate bound to 3% fatty acid-free bovine serum albumin (BSA), 5 mM glucose, and 0.5 mM lactate. Hearts underwent aerobic perfusion for 72 min with vehicle or increasing amounts of insulin (0, 25, 50, 100 μU/ml), insulin Degludec (0, 100, 300, 1000 μU/ml), or the M1 metabolite of insulin Glargine (0, 25, 50, 100 μU/ml). Each concentration escalation step lasted 18 minutes. At the end of the heart perfusion hearts were immediately snap frozen in liquid N2 and stored at −80° C. See FIG. 1 In order to measure glucose oxidation, glycolysis, palmitate oxidation, and lactate oxidation [U-^14C] glucose, [5-^3H] glucose, [9, 10-^3H] palmitate, and [U-^14C] lactate, respectively, were added to the perfusate as described above in Example 1. Glycolysis and palmitate oxidation rates were determined based on the rates of ^3H2O production. To determine glucose oxidation and lactate oxidation rates ^14CO2 production was assessed.

C57bl/6 mouse hearts = assay: Isolated working heart perfusion, cardiac energy metabolism (acute treatment), C57bl/6; conditions: for cardiac efficiency / % ATP from glucose oxidation / % ATP from palmitate oxidation: C57bl/6 mouse hearts; for glucose oxidation / palmitate oxidation: isolated working C57bl/6 mouse hearts, 10 wk old
Protocol: as §2

Akt = assay: Western Blot Analysis of cardiac Akt phosphorylation after acute treatment; conditions: db/db mouse hearts
Protocol: The phosphorylation status of several enzymes involved in insulin signaling were also assessed in the C57bl/6 and db/db mouse hearts treated acutely with insulin, Degludec, or Lantus, via Western Blot Analysis. Frozen heart issue was homogenized for 30 sec in homogenization buffer (50 mM Tris HCl, 10% glycerol, 1 mM EDTA, 0.02% Brij-35, 1 mM DTT, and protease and phosphatase inhibitors (Sigma)). After sitting on ice at least 10 min, tissue homogenates were centrifuged at 10,000×g for 20 min. The supernatant was then stored at −80° C. Protein concentration of supernatant was determined using the Bradford protein assay. After running samples on SDS-polyacrylamide gel electrophoresis, protein was transferred onto nitrocellulose membrane. Primary antibodies included pAkt Ser473 (Cell Signaling 9271), Akt (Cell Signaling 9272), pGSK3α/β Ser21/9 (Cell Signaling 9331), GSK3β (Cell Signaling 9315), pPDH Ser293 (Calbiochem AP1062), and PDH (Cell Signaling 2784). Protein bands were visualized on autoradiography film using enhanced chemiluminescence (Perkin Elmer) and quantified with Image J.

db/db mice [2] = assay: Chronic treatment of db/db mice: in vivo cardiac function by echocardiography; parameters: species or system mouse; conditions: chronic treatment 4 weeks
Protocol: The long-term effects of insulin treatment on cardiac function was assessed in two different settings. In acute treatments, measurements were performed in isolated working hearts from either wildtype mice (C57Bl) or mice with a diabetes type-2 phenotype (db/db mice). In a second chronic setting, db/db animals were treated for 4 weeks with daily administration of different high doses of insulins to achieve similar effects on systemic hypergycaemia. At the end of the chronic study, effects on cardiac function was assessed by echocardiography.
as §1

Row | Substance | blood glucose levels (db/db mice [1]) | blood glucose tolerance (db/db mice [1]) | cardiac efficiency (db/db mouse hearts; db/db mouse hearts) | glucose oxidation (db/db mouse hearts) | palmitate oxidation (db/db mouse hearts) | cardiac efficiency (C57bl/6 mouse hearts) | glucose oxidation (C57bl/6 mouse hearts) | palmitate oxidation (C57bl/6 mouse hearts) | % ATP from glucose oxidation (db/db mouse hearts; db/db mouse hearts) [%] | % ATP from palmitate oxidation (db/db mouse hearts; db/db mouse hearts) [%] | % ATP from glucose oxidation (C57bl/6 mouse hearts) [%] | % ATP from palmitate oxidation (C57bl/6 mouse hearts) [%] | pAkt (Akt) | cardiac output (db/db mice [2]) | cardiac stroke volume (db/db mice [2]) | in vivo cardiac function (db/db mice [2]) | in vivo cardiac function (db/db mice [2]; listed as lantus)
1 | NPH insulin: long acting basal insulin | did not reduce | improved | – | – | – | – | – | – | – | – | – | – | – | – | – | – | –
2 | Gly (A21) human insulin [M1-metabolite of insulin glargine] | – | – | improved | able to stimulate | inhibit | improved | able to stimulate | inhibit | – | – | – | – | – | – | – | – | –
3 | insulin: human insulin | – | – | – | – | – | – | – | – | 13 | 53 | 18 | 55 | – | – | – | – | –
4 | Degludec | did not reduce | improved | – | not | not | – | not | not | 5 | 75 | 12 | 62 | – | – | – | – | –
5 | Gly (A21), Arg (B31), Arg (B32) human insulin [Lantus] | did not reduce | improved | – | stimulates | decreases | improves | stimulates | decreases | 14 | 56 | 30 | 37 | significantly increased | significantly increased; also recorded: improved | significantly increased; also recorded: improved | improved | improves
